Experimental data taken from PubChem BioAssay AID1259407 (Chemical Carcinogenesis Research Information System (CCRIS), 2018).
Calls of active or inactive are those of the source. The rule behind the calls is not given here.

System: CCRIS mutagenicity, Ames/micronucleus/aberration tests
Test: CCRIS mutagenicity studies
[1] = Test System: AMES SALMONELLA TYPHIMURIUM, Strain/Indicator: TA98, Metabolic Activation: NONE, Method: STANDARD PLATE
[2] = Test System: AMES SALMONELLA TYPHIMURIUM, Strain/Indicator: TA98, Metabolic Activation: RAT, LIVER, S-9, AROCLOR 1254, Method: STANDARD PLATE
[3] = Test System: AMES SALMONELLA TYPHIMURIUM, Strain/Indicator: TA100, Metabolic Activation: NONE, Method: STANDARD PLATE
[4] = Test System: AMES SALMONELLA TYPHIMURIUM, Strain/Indicator: TA100, Metabolic Activation: RAT, LIVER, S-9, AROCLOR 1254, Method: STANDARD PLATE
[5] = Test System: AMES SALMONELLA TYPHIMURIUM, Strain/Indicator: TA1537, Metabolic Activation: RAT, LIVER, S-9, AROCLOR 1254, Method: STANDARD PLATE

Compound: CCCCN(CC)CC
- mutagenic call (Test System: AMES SALMONELLA TYPHIMURIUM, Strain/Indicator: TA97, Metabolic Activation: HAMSTER, LIVER, S-9, AROCLOR 1254 (10 OR 30%), Method: PREINCUBATION): inactive; negative
- mutagenic call (Test System: AMES SALMONELLA TYPHIMURIUM, Strain/Indicator: TA97, Metabolic Activation: NONE, Method: PREINCUBATION): inactive; negative
- mutagenic call (Test System: AMES SALMONELLA TYPHIMURIUM, Strain/Indicator: TA97, Metabolic Activation: RAT, LIVER, S-9, AROCLOR 1254 (10 OR 30%), Method: PREINCUBATION): inactive; negative
- mutagenic call (Test System: AMES SALMONELLA TYPHIMURIUM, Strain/Indicator: TA98, Metabolic Activation: HAMSTER, LIVER, S-9, AROCLOR 1254 (10 OR 30%), Method: PREINCUBATION): inactive; negative
- mutagenic call (Test System: AMES SALMONELLA TYPHIMURIUM, Strain/Indicator: TA98, Metabolic Activation: NONE, Method: PREINCUBATION): inactive; negative
- mutagenic call (Test System: AMES SALMONELLA TYPHIMURIUM, Strain/Indicator: TA98, Metabolic Activation: RAT, LIVER, S-9, AROCLOR 1254 (10 OR 30%), Method: PREINCUBATION): inactive; negative
- mutagenic call (Test System: AMES SALMONELLA TYPHIMURIUM, Strain/Indicator: TA100, Metabolic Activation: HAMSTER, LIVER, S-9, AROCLOR 1254 (10 OR 30%), Method: PREINCUBATION): inactive; negative
- mutagenic call (Test System: AMES SALMONELLA TYPHIMURIUM, Strain/Indicator: TA100, Metabolic Activation: NONE, Method: PREINCUBATION): inactive; negative
- mutagenic call (Test System: AMES SALMONELLA TYPHIMURIUM, Strain/Indicator: TA100, Metabolic Activation: RAT, LIVER, S-9, AROCLOR 1254 (10 OR 30%), Method: PREINCUBATION): inactive; negative
- mutagenic call (Test System: AMES SALMONELLA TYPHIMURIUM, Strain/Indicator: TA1535, Metabolic Activation: HAMSTER, LIVER, S-9, AROCLOR 1254 (10 OR 30%), Method: PREINCUBATION): inactive; negative
- mutagenic call (Test System: AMES SALMONELLA TYPHIMURIUM, Strain/Indicator: TA1535, Metabolic Activation: NONE, Method: PREINCUBATION): inactive; negative
- mutagenic call (Test System: AMES SALMONELLA TYPHIMURIUM, Strain/Indicator: TA1535, Metabolic Activation: RAT, LIVER, S-9, AROCLOR 1254 (10 OR 30%), Method: PREINCUBATION): inactive; negative

Compound: O=c1[nH]cc(CO)c(=O)[nH]1
- mutagenic call (Test System: CHINESE HAMSTER V-79, Strain/Indicator: V-79 (HPRT)/6-THIOGUANINE, Metabolic Activation: NONE, Method: STANDARD PLATE): inactive; negative

Compound: COCC1O[C@@H](O[C@@H]2C(COC)OC(OC)C(OC)C2OC)C(OC)C(OC)C1OC (stereo partly specified)
- mutagenic call [1]: inactive; negative
- mutagenic call [2]: inactive; negative
- mutagenic call [3]: inactive; negative
- mutagenic call [4]: inactive; negative
- mutagenic call (Test System: AMES SALMONELLA TYPHIMURIUM, Strain/Indicator: TA1535, Metabolic Activation: NONE, Method: STANDARD PLATE): inactive; negative
- mutagenic call (Test System: AMES SALMONELLA TYPHIMURIUM, Strain/Indicator: TA1535, Metabolic Activation: RAT, LIVER, S-9, AROCLOR 1254, Method: STANDARD PLATE): inactive; negative
- mutagenic call (Test System: AMES SALMONELLA TYPHIMURIUM, Strain/Indicator: TA1537, Metabolic Activation: NONE, Method: STANDARD PLATE): inactive; negative
- mutagenic call [5]: inactive; negative
- mutagenic call (Test System: AMES SALMONELLA TYPHIMURIUM, Strain/Indicator: TA1538, Metabolic Activation: NONE, Method: STANDARD PLATE): inactive; negative
- mutagenic call (Test System: AMES SALMONELLA TYPHIMURIUM, Strain/Indicator: TA1538, Metabolic Activation: RAT, LIVER, S-9, AROCLOR 1254, Method: STANDARD PLATE): inactive; negative
- mutagenic call (Test System: E. COLI, Strain/Indicator: WP2, Metabolic Activation: NONE, Method: STANDARD PLATE): inactive; negative
- mutagenic call (Test System: E. COLI, Strain/Indicator: WP2, Metabolic Activation: RAT, LIVER, S-9, AROCLOR 1254, Method: STANDARD PLATE): inactive; negative

Compound: Cc1ccc(N)cc1N=Nc1cc(N)ccc1C
- mutagenic call (Test System: AMES SALMONELLA TYPHIMURIUM, Strain/Indicator: TA98, Metabolic Activation: NONE, Method: SUSPENSION/PLATE): inactive; negative
- mutagenic call (Test System: AMES SALMONELLA TYPHIMURIUM, Strain/Indicator: TA98, Metabolic Activation: RAT, LIVER, S-9, PHENOBARBITAL AND 5,6-BENZOFLAVONE, Method: SUSPENSION/PLATE): active; positive
- mutagenic call (Test System: AMES SALMONELLA TYPHIMURIUM, Strain/Indicator: TA100, Metabolic Activation: NONE, Method: SUSPENSION/PLATE): inactive; negative
- mutagenic call (Test System: AMES SALMONELLA TYPHIMURIUM, Strain/Indicator: TA100, Metabolic Activation: RAT, LIVER, S-9, PHENOBARBITAL AND 5,6-BENZOFLAVONE, Method: SUSPENSION/PLATE): active; positive

Compound: FC(F)(Cl)C(F)(F)Cl
- mutagenic call (Test System: AMES SALMONELLA TYPHIMURIUM, Strain/Indicator: TA98, Metabolic Activation: NONE, Method: GAS EXPOSURE): inactive; negative
- mutagenic call (Test System: AMES SALMONELLA TYPHIMURIUM, Strain/Indicator: TA98, Metabolic Activation: RAT LIVER S-9, PHENOBARBITAL AND BETA-NAPHTHOFLAVONE (40%), Method: GAS EXPOSURE): inactive; negative
- mutagenic call (Test System: AMES SALMONELLA TYPHIMURIUM, Strain/Indicator: TA100, Metabolic Activation: NONE, Method: GAS EXPOSURE): inactive; negative
- mutagenic call (Test System: AMES SALMONELLA TYPHIMURIUM, Strain/Indicator: TA100, Metabolic Activation: RAT LIVER S-9, PHENOBARBITAL AND BETA-NAPHTHOFLAVONE (40%), Method: GAS EXPOSURE): inactive; negative
- mutagenic call (Test System: AMES SALMONELLA TYPHIMURIUM, Strain/Indicator: TA1535, Metabolic Activation: NONE, Method: GAS EXPOSURE): inactive; negative
- mutagenic call (Test System: AMES SALMONELLA TYPHIMURIUM, Strain/Indicator: TA1535, Metabolic Activation: RAT LIVER S-9, PHENOBARBITAL AND BETA-NAPHTHOFLAVONE (40%), Method: GAS EXPOSURE): inactive; negative
- mutagenic call (Test System: AMES SALMONELLA TYPHIMURIUM, Strain/Indicator: TA1537, Metabolic Activation: NONE, Method: GAS EXPOSURE): inactive; negative
- mutagenic call (Test System: AMES SALMONELLA TYPHIMURIUM, Strain/Indicator: TA1537, Metabolic Activation: RAT LIVER S-9, PHENOBARBITAL AND BETA-NAPHTHOFLAVONE (40%), Method: GAS EXPOSURE): inactive; negative
- mutagenic call (Test System: E.COLI, Strain/Indicator: WP2UVRA, Metabolic Activation: NONE, Method: GAS EXPOSURE): inactive; negative
- mutagenic call (Test System: E.COLI, Strain/Indicator: WP2UVRA, Metabolic Activation: RAT LIVER S-9, PHENOBARBITAL AND BETA-NAPHTHOFLAVONE (40%), Method: GAS EXPOSURE): inactive; negative

Compound: O.O=P([O-])([O-])[O-].[Fe+3]
- mutagenic call (Test System: MOUSE LYMPHOMA, Strain/Indicator: L5178Y (TK+/TK-), Metabolic Activation: NONE, Method: SUSPENSION/PLATE): inactive; negative. reevaluation of results: negative
- mutagenic call (Test System: MOUSE LYMPHOMA, Strain/Indicator: L5178Y (TK+/TK-), Metabolic Activation: RAT, LIVER, S-9, AROCLOR 1254, Method: SUSPENSION/PLATE): active; positive
- mutagenic call (Test System: Mouse lymphoma, Strain/Indicator: L5178Y (tk+/tk-), Metabolic Activation: Rat, Liver, S-9, Aroclor 1254, Method: Suspension/plate): active; equivocal (previous evaluation positive)

Compound: CCCCCCCCCCCCN
- mutagenic call (End Point: In vitro Chromosomal aberrations, Test System: CHO Cells, Metabolic Activation: None): inactive; negative; cytotoxic at 12 and 18 ug/ml
- mutagenic call (End Point: In vitro Chromosomal aberrations, Test System: CHO Cells, Metabolic Activation: Rodent S-9): inactive; negative; cytotoxic at 12 and 18 ug/ml

Compound: Oc1ccc2ccc3c4ccccc4cc4ccc1c2c43
- mutagenic call (Test System: AMES SALMONELLA TYPHIMURIUM, Strain/Indicator: TA97, Metabolic Activation: RAT, LIVER, S-9, AROCLOR 1254, Method: STANDARD PLATE): active; positive
- mutagenic call [1]: active; positive
- mutagenic call [2]: active; positive
- mutagenic call [3]: active; positive
- mutagenic call [4]: active; positive
- mutagenic call [5]: active; positive
- mutagenic call (Test System: CHINESE HAMSTER V-79, Strain/Indicator: V-79/8-AZAGUANINE, Metabolic Activation: NONE, Method: STANDARD PLATE): active; positive
